Values quoted from earlier work in patent publication US11253533B1, “Water dissolvable macrocyclic lactone cyclodextrin complexes” (MOUNTAIN VALLEY MD INC, priority 2020, dated 2022).

SMILES: CC[C@H](C)[C@H]1O[C@]2(CC[C@@H]1C)C[C@@H]1C[C@@H](C/C=C(\C)[C@@H](O[C@H]3C[C@H](OC)[C@@H](O[C@H]4C[C@H](OC)[C@@H](O)[C@H](C)O4)[C@H](C)O3)[C@@H](C)/C=C/C=C3\CO[C@@H]4[C@H](O)C(C)=C[C@@H](C(=O)O1)[C@]34O)O2 [Ivermectin, (1R,4S,5'S,6R,6′R,8R,10E,12S,13S,14E,16E,20R,21R,24S)-6′-[(2S)-butan-2-yl]-21,24-dihydroxy-12-[(2R,4S,5S,6S)-5-[(2S,4S,5S,6S)-5-hydroxy-4-methoxy-6-methyloxan-2-yl]oxy-4-methoxy-6-methyloxan-2-yl]oxy-5′,11,13,22-tetramethylspiro[3,7,19-trioxatetracyclo[15.6.1.14,8.020,24]pentacosa-10,14,16,22-tetraene-6,2′-oxane]-2-one]
- maximum concentration of ivermectin (FR 3042412, without an organic solvent): 2 mg per millileter of water
- solubility of Ivermectin (U.S. Pat. No. 4,389,397, with organic solvents, no cyclodextrin): 7%
- solubility in water (at 25 degrees Celsius): about 0.005 mg per ml
